The values that follow come from publication PMC10544015 (Journal of Medicinal Chemistry, 2023).

A short description of one series: circular dichroism. As to conditions: PBS (10 mM phosphate, 137 mM NaCl, 2.7 mM KCl); pH 7.4; rt °C; 100 uM.
In series [1] the target is T1, Panx1 channels (Mus musculus, UniProt Q9JIP4). The series can be described thus: Yo-Pro-1 dye uptake assay in B16-BL6 cells. As to conditions: for decrease of HOS-induced Yo-Pro-1 uptake: 100 µM, 30 min HOS. In kind it is cell-based. The method, then: The ability of the two previously identified lead compounds, SBL-PX1–42 and SBL-PX1-44, to affect the cellular uptake of ions and small molecules through Panx1 channels was evaluated in Yo-Pro-1 uptake assays. Yo-Pro-1 is a small fluorescent dye of 629 Da able to diffuse into cells through open Panx1 channels and emit green fluorescence when binding to nucleic acids in the cells.[66],[67] A representative example showing Yo-Pro-1 uptake over time is given in the Supporting Information (Figure S4). As expected, HOS induced a rapid Yo-Pro-1 uptake, which continued to increase gradually over time. […] While a small nonsignificant inhibition (14%) of Yo-Pro-1 uptake was observed when cells were exposed to 100 μM of ^10Panx1, the same concentration of the SBL-PX1-42 or SBL-PX1-44 analogues decreased Yo-Pro-1 uptake by 26 and 27%, respectively (Figure 3E). […] Among other possibilities, the reduced efficacy of the peptidomimetics in Yo-Pro-1 uptake assays, as compared to ATP release assays, may be attributed to the difference in size between ATP and Yo-Pro-1 or to the different repartition of charges in the two molecules.
T1 sequence (Q9JIP4 whole entry): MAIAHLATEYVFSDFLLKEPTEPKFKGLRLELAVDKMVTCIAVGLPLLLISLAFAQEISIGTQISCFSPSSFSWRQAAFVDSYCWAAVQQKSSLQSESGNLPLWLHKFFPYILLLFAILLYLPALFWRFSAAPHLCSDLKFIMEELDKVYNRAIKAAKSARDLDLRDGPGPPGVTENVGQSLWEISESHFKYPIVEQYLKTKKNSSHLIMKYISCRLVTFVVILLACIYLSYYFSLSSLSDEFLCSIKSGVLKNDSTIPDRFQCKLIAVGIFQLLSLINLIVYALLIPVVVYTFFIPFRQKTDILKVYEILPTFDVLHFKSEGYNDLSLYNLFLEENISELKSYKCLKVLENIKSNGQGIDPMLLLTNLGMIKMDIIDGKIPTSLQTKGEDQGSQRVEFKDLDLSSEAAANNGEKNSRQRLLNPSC
B16-BL6 cells were plated on 96-well plates and grown until confluency. […] Cells were then incubated in the HOS solution containing the aforementioned compounds. Yo-Pro-1 (5 μM, Life Technologies) was added to the cells, and fluorescence was continuously recorded for 30 min with FDSS/μCELL Functional Drug Screening System (Hamamatsu Photonics). Yo-Pro-1 uptake in each condition was expressed as a percentage of HOS-induced Yo-Pro-1 uptake. […] Triplicates were performed for each independent experiment.

The subject of the next series is B16-BL6 cells. As to the kind of experiment: LDH cytotoxicity assay in B16-BL6 cells. In kind it is cell-based, mouse. The conditions noted are these: peptides 100 to 6.25 µM, Pbn 2.5 mM, HOS solution.
The subject of a further series is H9c2 cells. The series can be described thus: ATP release assay in Panx1-lacking H9c2 cells (specificity). As to conditions: peptides 100 or 12.5 µM, Pbn 2.5 mM, 30 min HOS. The format is cell-based, rat. From the text: The cardiomyoblast cell line (H9c2) was chosen to assess the specificity of the stapled ^10Panx1 analogues. Panx1 mRNA was not found in undifferentiated H9c2 cells or after differentiation into cardiomyocyte-like cells, while it was readily detected in our positive controls (kidney and liver samples; Supporting Information, Figure S5B). The absence of Panx1 protein expression was confirmed by Western blot analysis in both undifferentiated and differentiated H9c2 cells (Supporting Information, Figure S5C) as well as by immunostaining on H9c2 cells (Supporting Information, Figure S5D). […] Of note, the low concentration of ATP release in H9c2 cells compared to B16-BL6 cells (47 vs 513 nM, respectively, see dotted line in Supporting Information, Figure S5E) cannot be attributed to low cellular content of the metabolite because a high level of ATP was found in the supernatant (1170 nM) when cells were lysed with Triton X-100.
(§1) Triplicates were performed for each independent experiment.

Series [2] deals with T2, Panx1 channels (Homo sapiens, UniProt Q96RD7).
T2 construct: host or cells: EA.hy926 human endothelial cells
T2 sequence (Q96RD7 whole entry): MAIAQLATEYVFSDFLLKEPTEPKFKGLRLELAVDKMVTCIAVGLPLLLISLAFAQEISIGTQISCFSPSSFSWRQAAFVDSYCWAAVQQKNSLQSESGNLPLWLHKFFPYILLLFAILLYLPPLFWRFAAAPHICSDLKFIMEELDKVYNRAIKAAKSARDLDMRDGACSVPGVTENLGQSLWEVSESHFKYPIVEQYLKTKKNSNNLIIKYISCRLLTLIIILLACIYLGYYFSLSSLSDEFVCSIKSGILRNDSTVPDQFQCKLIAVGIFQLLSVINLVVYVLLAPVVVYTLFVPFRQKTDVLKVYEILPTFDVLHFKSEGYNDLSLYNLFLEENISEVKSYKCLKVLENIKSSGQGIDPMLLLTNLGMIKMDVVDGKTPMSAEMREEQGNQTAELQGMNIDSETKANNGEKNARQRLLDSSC
The series can be described thus: HOS-induced ATP release assay in EA.hy926 endothelial cells. In kind it is cell-based. The method, then:
Similar to B16-BL6 cells, a 2–3-fold enhancement of ATP release from EA.hy926 cells was observed upon HOS stimulation (Figure 7E). However, the absolute levels of ATP release were lower in these endothelial cells (around 300 vs 500–600 nM in B16-BL6 cells). As expected, Pbn reduced HOS-induced ATP release from EA.hy926 cells, albeit by a lower fraction than the one observed in B16-BL6 cells (Figure 7E vs7A). The reason for this different efficacy of Pbn is unknown but may be due to its nonspecific action on other ATP release channels or transporters,[68] of which the expression naturally varies among different cell types. […] The water-soluble double-stapled ^10Panx1 peptidomimetic SBL-PX1-206 reduced HOS-induced ATP release from EA.hy926 cells by about 25% at 12.5 μM. […] Stapled and double-stapled ^10Panx1 analogues were also not cytotoxic when tested at 100 and 12.5 μM in EA.hy926 cells (Supporting Information, Figure S8).
as §1

Series [3] deals with T1, Panx1 channels. As to the kind of experiment: HOS-induced ATP release assay in B16-BL6 cells. As to conditions: for inhibition at 100 µM: B16-BL6, read-out: % ATP release inhibition at 100µM (in B16-BL6 cells).
A short description of series [4]: Circular dichroism spectroscopy (helicity). In kind it is physicochemical. As to conditions: PBS, 20 to 90 °C. As for the experimental part:
Spectra were measured with a JASCO J-715 CD spectropolarimeter equipped with a temperature controller using a 1 mm path length quartz cuvette and a scan rate of […]. The spectra were recorded in the wavelength range of 190–260 nm with a resolution and a bandwidth of 0.5 and 1.0 nm, respectively. The sensitivity and scan rate of the spectrometer were set to 100 mdeg and 50 nm min^–1, respectively. Samples were prepared in phosphate-buffered saline (PBS, 10 mM phosphate, 137 mM sodium chloride, 2.7 mM potassium chloride, pH 7.4, at room temperature) to the final concentration of 100 μM with or without 2,2,2-trifluoroethanol (TFE). CD spectra were averaged over 3–5 scans with the baseline subtracted from analogous conditions as those for the samples and converted to the mean residue ellipticity. Helicity was calculated as previously reported (see the Supporting Information).[52]
Background: Circular dichroism is widely used to follow secondary structure.

Series [5] is described as follows: In vitro proteolytic stability in human plasma. The format is in vitro ADME. As to conditions: for half-life t1/2 in human plasma: 37 °C. The method, then:
The proteolytic stability of the peptides was determined through in vitro stability assays in human plasma, as previously reported.[31],[89] Briefly, a stock solution of the peptide was prepared at a concentration of 1–2 mm in Milli-Q water and was used for further dilutions. Prior to the actual stability testing, the selectivity of the assay and stability of the working solutions were evaluated in parallel with an assessment of the linearity, accuracy, and precision of the method using three separately prepared calibration curves. The samples were analyzed by RP-HPLC on an Agilent 1200 series gradient HPLC system in combination with an EC HPLC column EC 150/2 NUCLEODUR (C18 HTec, 3 μm length: 150 mm, ID: 2 mm. Macherey-Nagel). The half-lives of the peptides were calculated by interpolating the data based on the obtained calibration curve. Afterward, the log concentrations as a function of time were transferred to a semi-log chart. Metabolites were identified by reanalyzing the samples using LC-MS on the same system previously described.[31]

A short description of the next series: human plasma. As to conditions: 37 °C.
Setting [6] is: EA.hy 926, read-out: % ATP release inhibition at 100µM (in EA.hy926 cells).

“Also recorded” adds a separate entry of the source. Like-named read-outs stand apart in the source and are kept apart here. Bridge positions count the residues as written; N and C are the ends. Square brackets hold non-standard residues; d marks the D form. Triazole bridges read from a SMILES are 1,4-linked. Peptide text beside a SMILES is read from it. Lys(N3) = [N-]=[N+]=NCCCC[C@H](N)C(=O)O; Orn(N3) = [N-]=[N+]=NCCC[C@H](N)C(=O)O; Hpra = C#CCC[C@H](N)C(=O)O; Pra = C#CC[C@H](N)C(=O)O; Ahx = NCCCCCC(=O)O

Take `CC(=O)N[C@H]1CCc2cn(nn2)CCCC[C@@H](C(=O)N[C@@H](C)C(=O)N[C@@H](Cc2ccccc2)C(=O)N[C@H](C(=O)N[C@@H](CC(=O)O)C(=O)N[C@@H](CO)C(=O)N[C@@H](Cc2ccc(O)cc2)C(N)=O)C(C)C)NC(=O)[C@H](CCC(N)=O)NC(=O)[C@H](CCCNC(=N)N)NC(=O)[C@H](Cc2c[nH]c3ccccc23)NC1=O` (Ac-[Hpra]WRQ[Lys(N3)]AFVDSY-NH2; triazole 1-5): in the series “circular dichroism”, the helicity turned out to be 26%.
On the same count and under the same terms, with `CC(=O)N[C@H]1CCCCn2cc(nn2)C[C@@H](C(=O)N[C@@H](C)C(=O)N[C@@H](Cc2ccccc2)C(=O)N[C@H](C(=O)N[C@@H](CC(=O)O)C(=O)N[C@@H](CO)C(=O)N[C@@H](Cc2ccc(O)cc2)C(N)=O)C(C)C)NC(=O)[C@H](CCC(N)=O)NC(=O)[C@H](CCCNC(=N)N)NC(=O)[C@H](Cc2c[nH]c3ccccc23)NC1=O` (Ac-[Lys(N3)]WRQ[Pra]AFVDSY-NH2; triazole 1-5) the figure was 20%.
The compound `CC(=O)N[C@H]1Cc2cn(nn2)CCC[C@@H](C(=O)N[C@@H](C)C(=O)N[C@@H](Cc2ccccc2)C(=O)N[C@H](C(=O)N[C@@H](CC(=O)O)C(=O)N[C@@H](CO)C(=O)N[C@@H](Cc2ccc(O)cc2)C(N)=O)C(C)C)NC(=O)[C@H](CCC(N)=O)NC(=O)[C@H](CCCNC(=N)N)NC(=O)[C@H](Cc2c[nH]c3ccccc23)NC1=O` (Ac-[Pra]WRQ[Orn(N3)]AFVDSY-NH2; triazole 1-5) registered a helicity in the series “circular dichroism” of 14%.
In the case of `CCCN(CCC)S(=O)(=O)c1ccc(C(=O)O)cc1` [Pbn, probenecid, reference compound], at Panx1 channels [1] (2.5 mM, 30 min), the “inhibition of Yo-Pro-1 uptake” value is listed as “final lower level than the basal Tyrode conditions”. The “cytotoxicity (extracellular LDH)” value in the series on B16-BL6 cells is “no cytotoxicity”. The “inhibition of ATP release in H9c2 cells” value with H9c2 cells is recorded as “No inhibition”. Also, the “reduction of HOS-induced ATP release from EA.hy926 cells” value on Panx1 channels [2] (2.5 mM) is recorded as “around 35%”. Besides, the “reduction of HOS-induced ATP release” value at Panx1 channels [3] (2.5 mM, B16-BL6 cells, 30 min HOS) stood at 61%.
By inhibition is commonly meant the drop in the measured response relative to a control, in per cent. As for `CC(=O)N[C@@H](CO)C(=O)N[C@@H](Cc1c[nH]c2ccccc12)C(=O)N[C@@H](CCCNC(=N)N)C(=O)N[C@@H](CCC(N)=O)C(=O)N[C@@H](C)C(=O)N[C@H]1Cc2cn(nn2)CCCC[C@@H](C(=O)N[C@@H](Cc2ccc(O)cc2)C(N)=O)NC(=O)[C@H](CC(=O)O)NC(=O)[C@H](C(C)C)NC(=O)[C@H](Cc2ccccc2)NC1=O` [SBL-PX1-42], the helicity in the series “circular dichroism” came to 56%. For the same compound, the “decrease of HOS-induced Yo-Pro-1 uptake” value at Panx1 channels [1] is given as 26%. Besides, the “cytotoxicity (extracellular LDH)” value in the series on B16-BL6 cells is listed as “no cytotoxicity”. In addition, in series [4], the “thermal stability of α-helical profile (CD at varying temperatures)” value is on record as “high thermal stability”. In addition, in series [5], the “fold longer half-life in human plasma compared to ^10Panx1” value is reported as 30 fold and the “half-life t1/2 in human plasma” value worked out at 1.102 ± 0.00867 h. The inhibition at 100 µM on Panx1 channels [2] (setting [6]) is 26%. For the same compound, the inhibition at 100 µM at Panx1 channels [3] was 39%.
Take `CC(=O)N[C@H]1Cc2cn(nn2)CCCC[C@@H](C(=O)N[C@@H](C)C(=O)N[C@@H](Cc2ccccc2)C(=O)N[C@H](C(=O)N[C@@H](CC(=O)O)C(=O)N[C@@H](CO)C(=O)N[C@@H](Cc2ccc(O)cc2)C(N)=O)C(C)C)NC(=O)[C@H](CCC(N)=O)NC(=O)[C@H](CCCNC(=N)N)NC(=O)[C@H](Cc2c[nH]c3ccccc23)NC1=O` [SBL-PX1-44]: the helicity in the series “circular dichroism” came to 41%. The “decrease of HOS-induced Yo-Pro-1 uptake” value on Panx1 channels [1] was determined as 27%. Further, the “cytotoxicity (extracellular LDH)” value in the series on B16-BL6 cells is “no cytotoxicity”. Further, the “fold longer half-life in human plasma compared to ^10Panx1” value in [5] is 30 fold. Further, the “half-life t1/2 in human plasma” value in [5] is 1.04 ± 0.0418 h. Further, the inhibition at 100 µM at Panx1 channels [2] (setting [6]) was determined as 41%; on Panx1 channels [3], 33%.
For `CC(C)[C@H](NC(=O)[C@H](Cc1ccccc1)NC(=O)[C@H](C)NC(=O)[C@H](C)NC(=O)[C@H](CCC(N)=O)NC(=O)[C@H](CCCNC(=N)N)NC(=O)[C@H](Cc1c[nH]c2ccccc12)NC(=O)CCCCCNC(=O)[C@@H](N)CCCCN)C(=O)N[C@@H](CC(=O)O)C(=O)N[C@@H](CO)C(=O)N[C@@H](Cc1ccc(O)cc1)C(=O)O` [SBL-PX1-214] (H-K[Ahx]WRQAAFVDSY-OH), the inhibition at 100 µM at Panx1 channels [2] (EA.hy 926, 100 µM, 30 min HOS stimulation, read-out: % ATP release inhibition at 100µM (in EA.hy926 cells)) came to 30%.
Turning to `CC(C)[C@H](NC(=O)[C@H](Cc1ccccc1)NC(=O)[C@H](C)NC(=O)[C@H](C)NC(=O)[C@H](CCC(N)=O)NC(=O)[C@H](CCCNC(=N)N)NC(=O)[C@@H](N)Cc1c[nH]c2ccccc12)C(=O)N[C@@H](CC(=O)O)C(=O)N[C@@H](CO)C(=O)N[C@@H](Cc1ccc(O)cc1)C(=O)O` [^10Panx1, WRQAAFVDSY] (H-WRQAAFVDSY-OH), the “cytotoxicity (extracellular LDH)” value with B16-BL6 cells is “no cytotoxicity”. The inhibition at 100 µM on Panx1 channels [2] (setting [6]) was determined as 24%; on Panx1 channels [3], 19%.
As for Ac-*WRQ*AFVDSY-NH2, in “human plasma” (up to 24 h), the cleaved bond entry is on record as “A-F, major; also recorded: D-S, major” and the not cleaved result was “amide bonds within the macrocycle remained intact for several hours”.
As for Ac-SWRQA*FVD*Y-NH2, the cleaved bond entry in the series “human plasma” (up to 24 h) is given as “R-Q, major; also recorded: A-*, major”.
For “R-*WRQ**FVD*Y-NH2 (m = 1; n = 4; R = K-Ahx-)”, the cleaved bond result in “human plasma” (up to 24 h) is reported as “K-Ahx, major, 8 hours”.
WRQAAFVDSY: the cleaved bond entry in the series “human plasma” (cited from earlier work) was “Trp74-Arg75; also recorded: Ala78-Phe79”.
